The values below come from paper PMC11302666, “The two alternative NADH:quinone oxidoreductases from Staphylococcus aureus: two players with different molecular and cellular roles” (Microbiology Spectrum, 2024).

One may read the Kd as the free concentration of one partner at which half of the binding sites on the other are occupied at equilibrium, for simple one-to-one binding. The low end stands for a tighter complex, the high end for a looser complex. Broadly, the Km is the concentration of substrate that gives half-maximal velocity.

Data set [1] deals with T1, NDH-2B (Staphylococcus aureus, UniProt Q2FZW0).
T1 construct: gene SAOUHSC_00875
T1 sequence (Q2FZW0 1-354): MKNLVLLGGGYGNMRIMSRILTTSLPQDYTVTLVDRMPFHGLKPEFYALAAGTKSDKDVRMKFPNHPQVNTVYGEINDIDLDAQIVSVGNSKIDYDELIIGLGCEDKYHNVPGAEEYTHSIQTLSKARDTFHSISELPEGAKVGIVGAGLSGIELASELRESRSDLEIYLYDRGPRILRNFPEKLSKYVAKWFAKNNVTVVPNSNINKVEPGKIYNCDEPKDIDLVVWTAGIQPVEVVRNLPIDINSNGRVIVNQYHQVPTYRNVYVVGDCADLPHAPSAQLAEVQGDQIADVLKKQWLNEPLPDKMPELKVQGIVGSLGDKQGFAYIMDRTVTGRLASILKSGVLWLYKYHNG
Briefly: co-purified flavin identified by HPLC and UV-visible spectrum. It is filed as binding.

The target of data set [2] is T1, NDH-2B. Description: tryptophan fluorescence quenching titration and STD-NMR. It is filed as binding.
For data set [3], the target named is T1, NDH-2B. Description: NADH:DMN oxidoreductase specific activity of purified enzyme. In kind it is biochemical.
Another data set deals with T2, NDH-2A (Staphylococcus aureus, UniProt Q2FZV7).
T2 construct: gene SAOUHSC_00878
T2 sequence (Q2FZV7 whole entry): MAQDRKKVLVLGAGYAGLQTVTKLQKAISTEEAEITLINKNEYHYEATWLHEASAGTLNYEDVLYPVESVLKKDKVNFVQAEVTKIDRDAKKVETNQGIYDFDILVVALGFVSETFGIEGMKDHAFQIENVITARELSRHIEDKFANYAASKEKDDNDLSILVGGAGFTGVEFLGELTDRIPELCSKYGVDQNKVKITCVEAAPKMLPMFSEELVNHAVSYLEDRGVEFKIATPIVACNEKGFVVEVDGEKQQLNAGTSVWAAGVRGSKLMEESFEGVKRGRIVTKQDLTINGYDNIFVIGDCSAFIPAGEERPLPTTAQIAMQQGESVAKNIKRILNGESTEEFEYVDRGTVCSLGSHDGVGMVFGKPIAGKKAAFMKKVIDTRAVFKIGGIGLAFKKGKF
Description: NADH:DMN oxidoreductase specific activity of purified enzyme, pH […]. It is filed as biochemical.

The target of data set [4] is T1, NDH-2B. Briefly: tryptophan fluorescence quenching titration. It is filed as binding.
Data set [5] addresses T1, NDH-2B. Briefly: steady-state NADPH:DMN oxidoreductase inhibition (Ki app); also tryptophan fluorescence quenching titration. It is filed as biochemical.
The target in data set [6] is T1, NDH-2B. Description: tryptophan fluorescence quenching titration and STD-NMR; KM […] in steady-state kinetics. It is filed as binding.
Substrate in the data set “purified protein”: NC(=O)C1=CN([C@@H]2O[C@H](COP(=O)(O)OP(=O)(O)OC[C@H]3O[C@@H](n4cnc5c(N)ncnc54)[C@H](OP(=O)(O)O)[C@@H]3O)[C@@H](O)[C@H]2O)C=CC1
Briefly: purified protein. In kind it is biochemical, Staphylococcus aureus. The note with it: FAD binding site different from that of the quinone; pH 7.0.

With `Cc1cc2nc3c(=O)[nH]c(=O)nc-3n(C[C@H](O)[C@H](O)[C@H](O)COP(=O)(O)OP(=O)(O)OC[C@H]3O[C@@H](n4cnc5c(N)ncnc54)[C@H](O)[C@@H]3O)c2cc1C` [FAD, flavin adenine dinucleotide], the “co-purified flavin identified by HPLC and UV-visible spectrum” value at NDH-2B [1] was “Subsequent HPLC analysis confirmed the flavin as flavin adenine dinucleotide (FAD)”.

As for `NC(=O)c1ccc[n+]([C@@H]2O[C@H](COP(=O)(O)OP(=O)(O)OC[C@H]3O[C@@H](n4cnc5c(N)ncnc54)[C@H](OP(=O)(O)O)[C@@H]3O)[C@@H](O)[C@H]2O)c1` [NADP^+], the Kd at NDH-2B [2] came out at 182 ± 29 µM.

Turning to `NC(=O)C1=CN([C@@H]2O[C@H](COP(=O)(O)OP(=O)(O)OC[C@H]3O[C@@H](n4cnc5c(N)ncnc54)[C@H](O)[C@@H]3O)[C@@H](O)[C@H]2O)C=CC1` [NADH], the NDH-2B at NDH-2B [3] was determined as 34.03 ± 0.86 µmol/min/mg. At NDH-2A, this molecule had an NDH-2A of 122.10 ± 18.30 µmol/min/mg.

Consider `NC(=O)c1ccc[n+]([C@@H]2O[C@H](COP(=O)([O-])OP(=O)(O)OC[C@H]3O[C@@H](n4cnc5c(N)ncnc54)[C@H](O)[C@@H]3O)[C@@H](O)[C@H]2O)c1` [NAD^+], for which the Kd at NDH-2B [4] turned out to be 170 ± 7.6 µM.

`CCCCCCCc1cc(O)c2ccccc2[n+]1[O-]` [HQNO, 2-n-heptyl-4-hydroxyquinoline-N-oxide]: the Ki on NDH-2B [5] amounted to 6.4 ± 1.25 µM.

Molecule `CC1=C(C)C(=O)c2ccccc2C1=O` [DMN, 2,3-dimethyl-1,4-naphthoquinone] came in with a Kd at NDH-2B [6] of 160 ± 35 µM.

B1: NDH-2B (Staphylococcus aureus subsp. aureus NCTC 8325) (protein)
chain: T1 sequence (Q2FZW0 1-354)
With B1, the Km in “purified protein” is on record as 80.4 ± 7.7 µM.
